Data: patent publication US20100256357A1, “HETEROCYCLES USEFUL AS INHIBITORS OF CARBONIC ANHYDRASE” (Agouron Pharmaceuticals, Inc., priority 2006, published 2010)
Where two headings read alike, the source gives them in different places.

How the values were obtained:
[1] = molecular target: T1, human CA-IX (Homo sapiens, UniProt Q16790); experiment: Carbonic Anhydrase-IX (CA-IX) Fluorescence Polarization Assay-IC50 Determination; format: binding; details: read-out: CAIX IC50
T1 construct: purchased R&D Systems Inc. 2188-CA-010
Description: Carbonic Anhydrase-IX (CA-IX) Fluorescence Polarization Assay-IC50 Determination
Compounds were diluted in DMSO at the concentration of 1 mM, then 50 μM and transferred to a 96-well plate for further dilutions (1:3 dilution, 11 points) in duplicate. Final compound highest concentration in CA-IX FP assay is 1 μM. Assays were conducted in a final volume of 100 μL in 50 mM Tris/HCl (pH 7.6), 100 mM Na2SO4 and 0.005% Tween-20 in a 96-well black assay. plate. […] was used as the tracer. Binding inhibition was determined by pipetting 8 μL of human CA-IX (8 nM, R&D Systems Inc. Cat#2188-CA-010) into assay plate contained 2 μL of compound and 2 μL of tracer (2 nM) in 88 μL of assay buffer. The assay plate was incubated at room temperature for 30 minutes and read in the fluorescence polarization reader (Molecular Devices, Analyst) at 524/45 nm (excitation), 595/60 nm (emission) and 561 nm (bean splitter). […] GraphPad Prism or similar in-house software with the IC50 curve fitting using the four parameter logistic equation.

[2] = molecular target: T2, human CA-XII (Homo sapiens, UniProt O43570); experiment: Carbonic Anhydrase-XII (CA-XII) Fluorimetric Assay-IC50 Determination; format: biochemical; details: for inhibition at 1 µM: read-out: % inh CAXII @ 1 uM; for IC50: read-out: CAXII IC 50
T2 construct: made in house; host or cells: Escherichia coli AD494 (DE3)
T2 sequence (O43570 30-289 limits assumed): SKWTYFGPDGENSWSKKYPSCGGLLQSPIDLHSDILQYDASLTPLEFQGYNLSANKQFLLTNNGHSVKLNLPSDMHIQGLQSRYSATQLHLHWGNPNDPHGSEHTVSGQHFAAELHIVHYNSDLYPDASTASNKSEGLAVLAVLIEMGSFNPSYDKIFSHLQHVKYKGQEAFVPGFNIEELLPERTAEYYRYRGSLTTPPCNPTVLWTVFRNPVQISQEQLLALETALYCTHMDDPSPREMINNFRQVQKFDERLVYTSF
Description: Carbonic Anhydrase-XII (CA-XII) Fluorimetric Assay-IC50 Determination
The cells were grown in LB (Biomyx) supplemented with 800 uM ZnCl2 at 37° C. until an O.D.600 of 0.7, at which point the cells were induced with 100 uM IPTG for 20 hours at 20° C. The frozen pellet was resuspended in 50 mM MES pH 6.0, 100 mM NaCl, 800 uM ZnCl2 and EDTA-Free protease inhibitors (Roche). The cells were lysed with a microfluidizer and the lysate was spun at 40,000 rpm for 45 minutes at 4° C. The soluble fraction was then put over a 100 ml SP-Sepharose High Performance (GE Healthcare) column and eluted with a 50 mM MES pH 6.0, 750 mM NaCl gradient.
Compounds were diluted in DMSO at the concentration of 1 mM, then 50 μM and transferred to a 96-well plate for further dilutions (1:3 dilution, 11 points) in duplicate. Final compound highest concentration in CA-XII Fluorimetric assay is 1 μM. Assays were conducted in a final volume of 100 μL in 50 mM Tris/HCl (pH 7.6), 100 mM Na2SO4 and 0.005% Tween-20 in a 96-well black assay plate. Fluorescein diacetate was used as the substrate. Enzyme inhibition was determined by pipetting 8 μL of human CA-XII (50 nM) into assay plate contained 2 μL of compound and 2 μL of substrate (10 μM) in 88 μL of assay buffer.

[3] = molecular target: T3, human CA-IV (Homo sapiens, UniProt P22748); experiment: Carbonic Anhydrase-IV (CA-IV) Fluorescence Polarization Assay-IC50 Determination; format: binding; details: for inhibition at 0.2 µM: read-out: CA-IV: % Inh @ Min dose
T3 construct: made in house; host or cells: Escherichia coli BL21(DE3)
T3 sequence (P22748 19-284 limits assumed): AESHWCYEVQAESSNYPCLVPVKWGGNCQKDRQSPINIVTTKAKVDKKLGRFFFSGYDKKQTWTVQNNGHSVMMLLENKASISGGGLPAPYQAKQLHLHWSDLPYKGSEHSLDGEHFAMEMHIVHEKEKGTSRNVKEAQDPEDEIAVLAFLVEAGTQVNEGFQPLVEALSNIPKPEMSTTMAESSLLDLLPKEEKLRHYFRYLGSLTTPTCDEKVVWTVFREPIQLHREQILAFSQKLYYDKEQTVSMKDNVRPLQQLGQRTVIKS
Method in brief: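 IC50 values come from a fluorescence polarization read-out. The CA-IV protein was zinc-supplemented during expression and purified by cation exchange then gel filtration, ending in 25 mM Tris-HCl pH 7.0 with 100 mM NaCl at 7.0 mg/mL.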

[4] = molecular target: T4, human CA-II (Homo sapiens, UniProt P00918); experiment: Carbonic Anhydrase-II (CA-II) Fluorescence Polarization Tight Binding Assay-Kd Determination; details: read-out: CA-II Kd
T4 construct: purchased Sigma-Aldrich C6165
Description: Assays were conducted in a final volume of 100 μL in 50 mM Tris/HCl (pH 7.6), 100 mM Na2SO4 and 0.005% Tween-20 in a 96-well black assay plate. […] The assay plate was
The Kd binding was calculated using GraphPad Prism and Morrison tight binding ligand equation.

[5] = molecular target: T4, human CA-II; experiment: Carbonic Anhydrase-II (CA-II) Fluorimetric Assay-IC50 Determination; format: biochemical; details: for inhibition at 0.1 µM: CA II Min dose 100 nM
Method in brief: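 Enzyme activity is read fluorimetrically at 25° C (ex 488 nm / em 538 nm) as the rate at which human CA-II hydrolyses fluorescein diacetate. The buffer is Tris/HCl (50 mM, pH 7.6) with 100 mM Na2SO4 and 0.005% Tween-20. Inhibitors run in duplicate over 11 threefold dilutions, […]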

[6] = read-out: CAII % Inh @ Min dose

Row | Compound | IC50 [1] [nM] | inhibition at 1 µM [2] [%] | IC50 [2] [nM] | further results
1 | CN(Cc1nc(Cc2ccccc2)n(-c2ccc(S(N)(=O)=O)cc2F)n1)C1CCCCC1 [Example F-1aq, 4-(5-benzyl-3-{[cyclohexyl(methyl)amino]methyl}-1H-1,2,4-triazol-1-yl)-3-fluorobenzenesulfonamide] | 9.41 | – | – | –
2 | NS(=O)(=O)c1ccc(-n2ncnc2Cc2ccccc2)cc1 [Example L-1a, 4-(5-benzyl-1H-1,2,4-triazol-1-yl)benzenesulfonamide] | 35.6 | – | – | –
3 | CCOC(=O)c1nc(Cc2ccccc2)n(-c2ccc(S(N)(=O)=O)cc2)n1 [a-4, Ethyl 1-[4-(Aminosulfonyl)phenyl]-5-benzyl-1H-1,2,4-triazole-3-carboxylate] | – | 95 | 73.8 | –
4 | NS(=O)(=O)c1ccc(-n2nc(CO)cc2Cc2ccc(Cl)cc2)cc1 [qq-3a, 4-[5-(4-chlorobenzyl)-3-(hydroxymethyl)-1H-pyrazol-1-yl]benzenesulfonamide] | 13.5 | – | – | IC50 ([3]; read-out: IC50_CAIV): 284 nM
5 | NS(=O)(=O)c1ccc(-n2nc(CN3CCOCC3)c3c2CCCC3)cc1 [II-1b, 4-[3-(morpholin-4-ylmethyl)-4,5,6,7-tetrahydro-1H-indazol-1-yl]benzenesulfonamide] | – | 89 | 119 | IC50 ([3]; read-out: IC50_CAIV): ≥ 5000 nM
6 | Cc1cccc(Cc2nc(CN(C)C3CCCC3)nn2-c2ccc(S(N)(=O)=O)cc2F)c1 [Example F-1ak] | 3.83 | – | – | –
7 | Cc1nc(Cc2cccc(F)c2)n(-c2ccc(S(N)(=O)=O)cc2)n1 [f-3a, 4-[5-(3-fluorobenzyl)-3-methyl-1H-1,2,4-triazol-1-yl]benzenesulfonamide] | 36.9 | – | – | –
8 | CCOC(=O)c1nn(-c2ccc(S(N)(=O)=O)cc2)c2c1CNCC2 [EE-1g, ethyl 1-[4-(aminosulfonyl)phenyl]-4,5,6,7-tetrahydro-1H-pyrazolo[4,3-c]pyridine-3-carboxylate] | – | 31 | > 1000 | –
9 | CN(Cc1cc(Cc2ccc(Cl)cc2)n(-c2ccc(S(N)(=O)=O)cc2)n1)C1CCCCC1 [QQ-10] | 5.18 | – | – | –
10 | Cc1cc(C(=O)N2CCN(C)CC2)nn1-c1ccc(S(N)(=O)=O)cn1 [MM-1c, 6-{5-methyl-3-[(4-methylpiperazin-1-yl)carbonyl]-1H-pyrazol-1-yl}pyridine-3-sulfonamide] | – | 86 | 166 | IC50 ([3]; read-out: IC50_CAIV): 2950 nM
11 | CN(CCc1ccccc1)Cc1cn(Cc2ccccc2F)c(-c2ccc(S(N)(=O)=O)cc2)n1 [CCC-1a, 4-(1-(2-fluorobenzyl)-4-{[methyl(2-phenylethyl)amino]methyl}-1H-imidazol-2-yl)benzenesulfonamide] | 39.3 | – | – | –
12 | CCOC(=O)c1cc(C)n(-c2ccc(S(N)(=O)=O)cc2)n1 [GG-1, Ethyl 1-[4-(Aminosulfonyl)phenyl]-5-methyl-1H-pyrazole-3-carboxylate] | – | 51 | 896 | IC50 ([3]; read-out: IC50_CAIV): ≥ 5000 nM
13 | NS(=O)(=O)c1ccc(-n2nc(C(=O)O)nc2Cc2ccccc2)cc1 [a-5, 1-[4-(Aminosulfonyl)phenyl]-5-benzyl-1H-1,2,4-triazole-3-carboxylic acid] | – | 99 | 25.8 | –
14 | CCCCN(C)Cc1nc(Cc2ccccc2)n(-c2ccc(S(N)(=O)=O)cc2F)n1 [Example G-1b, 4-(5-benzyl-3-{[butyl(methyl)amino]methyl}-1H-1,2,4-triazol-1-yl)-3-fluorobenzenesulfonamide] | 9.01 | – | – | –
15 | NS(=O)(=O)c1ccc(-n2nc(CN3CC=CCC3)nc2Cc2cccc(Br)c2)cc1 [Example F-1z, 4-[5-(3-bromobenzyl)-3-(3,6-dihydropyridin-1(2H)-ylmethyl)-1H-1,2,4-triazol-1-yl]benzenesulfonamide] | 7.99 | – | – | –
16 | Cc1cc(C(=O)N(C)C)nn1-c1ccc(S(N)(=O)=O)cn1 [MM-1b, 1-[5-(aminosulfonyl)pyridin-2-yl]-N,N,5-trimethyl-1H-pyrazole-3-carboxamide] | – | 96 | 66.5 | IC50 ([3]; read-out: IC50_CAIV): 2390 nM
17 | COCc1nc(Cc2cccc(Br)c2)n(-c2ccc(S(N)(=O)=O)cc2)n1 [f-3g, 4-[5-(3-bromobenzyl)-3-(methoxymethyl)-1H-1,2,4-triazol-1-yl]benzenesulfonamide] | 8.11 | – | – | –
18 | CN(CCc1ccccc1)C(=O)c1nc(Cc2ccccc2)n(-c2ccc(S(N)(=O)=O)cc2F)n1 [Example A-1d, 1-[4-(aminosulfonyl)-2-fluorophenyl]-5-benzyl-N-methyl-N-(2-phenylethyl)-1H-1,2,4-triazole-3-carboxamide] | 2.94 | – | – | –
19 | C[C@@H]1CN(Cc2nc(Cc3ccccc3)n(-c3ccc(S(N)(=O)=O)cc3F)n2)C[C@H](C)O1 [Example F-1, 4-(5-Benzyl-3-{[2,6-cis-dimethylmorpholin-4-yl]methyl}-1H-1,2,4-triazol-1-yl)-3-fluorobenzenesulfonamide] | 26.1 | – | – | –
20 | NS(=O)(=O)c1ccc(-n2nc(C(=O)N(CCO)Cc3ccccc3)nc2Cc2ccccc2)cc1 [Example R-2, 1-[4-(aminosulfonyl)phenyl]-N5-dibenzyl-N-(2-hydroxyethyl)-1H-124-triazole-3-carboxamide] | – | – | – | Kd [4]: 0.621 nM; inhibition at 0.2 µM ([3]; CA-IV Min dose 200 nM): 57.7%; IC50 ([3]; read-out: CA-IV IC50): 87 nM; inhibition at 0.01 µM ([5]; CA II Min dose 10 nM, read-out: CAII % Inh @ Min dose): 87%
21 | CCCN(C)Cc1nc(Cc2cccc(C)c2)n(-c2ccc(S(N)(=O)=O)cc2F)n1 [Example F-1aj, 3-fluoro-4-[5-(3-methylbenzyl)-3-{[methyl(propyl)amino]methyl}-1H-1,2,4-triazol-1-yl]benzenesulfonamide] | 4.32 | – | – | –
22 | NS(=O)(=O)c1ccc(-n2nc(C(=O)NCC3CCCCC3)nc2Cc2ccccc2)cc1 [Example R-17, 1-[4-(aminosulfonyl)phenyl]-5-benzyl-N-(cyclohexylmethyl)-1H-124-triazole-3-carboxamide] | – | – | – | Kd [4]: 0.067 nM; inhibition at 0.2 µM ([3]; CA-IV Min dose 200 nM): 56.9%; IC50 ([3]; read-out: CA-IV IC50): 242 nM; inhibition at 0.1 µM [5, 6]: 101%
23 | CCCCN(C)C(=O)c1nc(Cc2ccccc2)n(-c2ccc(S(N)(=O)=O)cc2F)n1 | 2.79 | – | – | –
24 | Cc1nc(C(=O)O)nn1-c1ncc(S(N)(=O)=O)cn1 [Example I-5b, 1-[5-(aminosulfonyl)pyrimidin-2-yl]-5-methyl-1H-1,2,4-triazole-3-carboxylic acid] | – | 46 | > 1000 | IC50 ([3]; read-out: IC50_CAIV): > 1000 nM; IC50 ([5]; read-out: IC50—CAII): 57.9 nM
25 | CCCCCN(C)C(=O)c1nc(Cc2ccccc2)n(-c2ccc(S(N)(=O)=O)cc2)n1 [Example R-1, 1-[4-(aminosulfonyl)phenyl]-5-benzyl-N-methyl-N-pentyl-1H-124-triazole-3-carboxamide] | – | – | – | Kd [4]: 0.56 nM; inhibition at 0.2 µM ([3]; CA-IV Min dose 200 nM): 68.6%; IC50 ([3]; read-out: CA-IV IC50): 86 nM; inhibition at 0.1 µM [5, 6]: 100%
26 | NS(=O)(=O)c1ccc(-c2nc(C(F)(F)F)cn2Cc2cccc(OC(F)F)c2)cc1 [JJJ-4, 4-{1-[3-(difluoromethoxy)benzyl]-4-(trifluoromethyl)-1H-imidazol-2-yl]benzenesulfonamide] | – | – | – | Kd [4]: 1.39 nM; inhibition at 0.2 µM ([3]; Min dose 200 nM): 29%; IC50 ([3]; read-out: CA-IV IC50): 440 nM; inhibition at 0.0025 µM ([5]; Min dose 2.5 nM, read-out: CAII % Inh @ Min dose): 39%
